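Following 48 hours of exposure in 96-well plates, responses at five concentrations were used to interpolate endpoints linearly. Here, GI50 denotes the concentration required for 50% inhibition of growth. The concentration for full growth arrest is given as TGI.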
Key:
Assay in all cases: NCI-60 cell line screen, 48 h
DU-145 prostate = test system: DU-145 prostate
NCI-H522 lung = test system: NCI-H522 lung
CAKI-1 renal = test system: CAKI-1 renal
TK-10 renal = test system: TK-10 renal
U251 CNS = test system: U251 CNS
A498 renal = test system: A498 renal
SF-539 CNS = test system: SF-539 CNS
OVCAR-8 ovarian = test system: OVCAR-8 ovarian
MCF7 breast = test system: MCF7 breast
ACHN renal = test system: ACHN renal
MALME-3M melanoma = test system: MALME-3M melanoma
K-562 leukemia = test system: K-562 leukemia
UACC-257 melanoma = test system: UACC-257 melanoma
IGROV1 ovarian = test system: IGROV1 ovarian
SW-620 colon = test system: SW-620 colon
SNB-19 CNS = test system: SNB-19 CNS
BT-549 breast = test system: BT-549 breast
MDA-MB-231 breast = test system: MDA-MB-231 breast
CCRF-CEM leukemia = test system: CCRF-CEM leukemia
HOP-62 NSCLC = test system: HOP-62 NSCLC
SK-OV-3 ovarian = test system: SK-OV-3 ovarian
OVCAR-4 ovarian = test system: OVCAR-4 ovarian
A549 NSCLC = test system: A549 NSCLC
OVCAR-3 ovarian = test system: OVCAR-3 ovarian
LOX IMVI melanoma = test system: LOX IMVI melanoma
EKVX NSCLC = test system: EKVX NSCLC
HS 578T breast = test system: HS 578T breast
COLO 205 colon = test system: COLO 205 colon
NCI-H226 lung = test system: NCI-H226 lung
KM12 colon = test system: KM12 colon
SF-268 CNS = test system: SF-268 CNS
HOP-92 NSCLC = test system: HOP-92 NSCLC
786-0 renal = test system: 786-0 renal
SK-MEL-2 melanoma = test system: SK-MEL-2 melanoma
HT29 colon = test system: HT29 colon
PC-3 prostate = test system: PC-3 prostate
SK-MEL-28 melanoma = test system: SK-MEL-28 melanoma
UO-31 renal = test system: UO-31 renal
NCI-H460 lung = test system: NCI-H460 lung
SNB-75 CNS = test system: SNB-75 CNS
HCT-116 colon = test system: HCT-116 colon
HCT-15 colon = test system: HCT-15 colon
M14 melanoma = test system: M14 melanoma
OVCAR-5 ovarian = test system: OVCAR-5 ovarian
HL-60(TB) leukemia = test system: HL-60(TB) leukemia
MOLT-4 leukemia = test system: MOLT-4 leukemia
HCC-2998 colon = test system: HCC-2998 colon
SF-295 CNS = test system: SF-295 CNS
SK-MEL-5 melanoma = test system: SK-MEL-5 melanoma
RPMI-8226 leukemia = test system: RPMI-8226 leukemia
NCI/ADR-RES ovarian = test system: NCI/ADR-RES ovarian
NCI-H23 lung = test system: NCI-H23 lung
SR leukemia = test system: SR leukemia
RXF 393 renal = test system: RXF 393 renal
SN12C renal = test system: SN12C renal
UACC-62 melanoma = test system: UACC-62 melanoma
MDA-MB-435 = test system: MDA-MB-435

COc1cccc2cc(N(C)c3ncnc4ccccc34)ccc12
GI50 (DU-145 prostate): < 0.01 µM | TGI (DU-145 prostate): 10.4 µM | GI50 (NCI-H522 lung): < 0.01 µM | TGI (NCI-H522 lung): 3.12 µM | GI50 (CAKI-1 renal): < 0.01 µM | TGI (CAKI-1 renal): 12.3 µM | TGI (TK-10 renal): 16.9 µM | GI50 (U251 CNS): < 0.01 µM | TGI (U251 CNS): 11.6 µM | GI50 (A498 renal): < 0.01 µM | TGI (A498 renal): 11 µM | GI50 (SF-539 CNS): < 0.01 µM | GI50 (OVCAR-8 ovarian): 0.0172 µM | TGI (OVCAR-8 ovarian): 32.6 µM | GI50 (MCF7 breast): < 0.01 µM | TGI (MCF7 breast): 12.3 µM | GI50 (ACHN renal): < 0.01 µM | TGI (ACHN renal): 7.52 µM | GI50 (MALME-3M melanoma): < 0.0484 µM | TGI (MALME-3M melanoma): 10.1 µM | GI50 (K-562 leukemia): < 0.01 µM | TGI (K-562 leukemia): 25.1 µM | GI50 (UACC-257 melanoma): 0.283 µM | TGI (UACC-257 melanoma): 10.6 µM | GI50 (IGROV1 ovarian): < 0.01 µM | TGI (IGROV1 ovarian): 12.2 µM | GI50 (SW-620 colon): < 0.01 µM | TGI (SW-620 colon): 17.6 µM | GI50 (SNB-19 CNS): < 0.0132 µM | TGI (SNB-19 CNS): 18.4 µM | GI50 (BT-549 breast): 0.0185 µM | TGI (BT-549 breast): 6.64 µM | GI50 (MDA-MB-231 breast): 0.025 µM | TGI (MDA-MB-231 breast): 13 µM | GI50 (CCRF-CEM leukemia): < 0.0147 µM | TGI (CCRF-CEM leukemia): 17.8 µM | GI50 (HOP-62 NSCLC): < 0.01 µM | TGI (HOP-62 NSCLC): 15.4 µM | GI50 (SK-OV-3 ovarian): < 0.01 µM | TGI (SK-OV-3 ovarian): 18.4 µM | GI50 (OVCAR-4 ovarian): < 0.0161 µM | TGI (OVCAR-4 ovarian): 13.5 µM | GI50 (A549 NSCLC): < 0.01 µM | TGI (A549 NSCLC): 9.11 µM | GI50 (OVCAR-3 ovarian): < 0.01 µM | TGI (OVCAR-3 ovarian): < 0.0107 µM | GI50 (LOX IMVI melanoma): < 0.0123 µM | TGI (LOX IMVI melanoma): 13.5 µM | GI50 (EKVX NSCLC): 0.0772 µM | TGI (EKVX NSCLC): 13.6 µM | GI50 (HS 578T breast): < 0.01 µM | TGI (HS 578T breast): 20.4 µM | GI50 (COLO 205 colon): < 0.01 µM | TGI (COLO 205 colon): 0.0659 µM | GI50 (NCI-H226 lung): < 0.01 µM | TGI (NCI-H226 lung): 0.827 µM | GI50 (KM12 colon): < 0.01 µM | TGI (KM12 colon): 1.07 µM | GI50 (SF-268 CNS): 0.0221 µM | TGI (SF-268 CNS): 14.1 µM | GI50 (HOP-92 NSCLC): < 0.01 µM | TGI (HOP-92 NSCLC): 1.03 µM | GI50 (786-0 renal): < 0.0167 µM | TGI (786-0 renal): 5.9 µM | GI50 (SK-MEL-2 melanoma): 0.142 µM | TGI (SK-MEL-2 melanoma): 14.4 µM | GI50 (HT29 colon): < 0.01 µM | TGI (HT29 colon): 11.8 µM | GI50 (PC-3 prostate): < 0.01 µM | TGI (PC-3 prostate): 15.6 µM | GI50 (SK-MEL-28 melanoma): 1.35 µM | TGI (SK-MEL-28 melanoma): 13.8 µM | GI50 (UO-31 renal): < 0.0287 µM | TGI (UO-31 renal): 13.8 µM | GI50 (NCI-H460 lung): < 0.01 µM | TGI (NCI-H460 lung): 10.8 µM | GI50 (SNB-75 CNS): < 0.0105 µM | TGI (SNB-75 CNS): 13 µM | GI50 (HCT-116 colon): < 0.01 µM | TGI (HCT-116 colon): 0.521 µM | GI50 (HCT-15 colon): < 0.01 µM | TGI (HCT-15 colon): 12.8 µM | GI50 (M14 melanoma): < 0.01 µM | TGI (M14 melanoma): 13.7 µM | GI50 (OVCAR-5 ovarian): 0.0319 µM | TGI (OVCAR-5 ovarian): 17.4 µM | GI50 (HL-60(TB) leukemia): < 0.01 µM | TGI (HL-60(TB) leukemia): 0.0486 µM | GI50 (MOLT-4 leukemia): 0.0237 µM | TGI (MOLT-4 leukemia): 15.2 µM | GI50 (HCC-2998 colon): 0.0211 µM | TGI (HCC-2998 colon): 5.43 µM | GI50 (SF-295 CNS): < 0.01 µM | TGI (SF-295 CNS): 11.4 µM | GI50 (SK-MEL-5 melanoma): < 0.01 µM | TGI (SK-MEL-5 melanoma): 0.0374 µM | TGI (RPMI-8226 leukemia): 4.99 µM | GI50 (NCI/ADR-RES ovarian): < 0.01 µM | TGI (NCI/ADR-RES ovarian): 0.629 µM | GI50 (NCI-H23 lung): < 0.0156 µM | TGI (NCI-H23 lung): 6.26 µM | GI50 (SR leukemia): < 0.01 µM | TGI (SR leukemia): 24.8 µM | GI50 (RXF 393 renal): < 0.01 µM | TGI (RXF 393 renal): 20 µM | GI50 (SN12C renal): < 0.0159 µM | TGI (SN12C renal): 13.3 µM

COc1ccc(NC(=S)N/N=C/c2c(C)n(C)n(-c3ccccc3)c2=O)cc1
TGI (CAKI-1 renal): 51.8 µM | TGI (TK-10 renal): > 100 µM | TGI (U251 CNS): 51.7 µM | TGI (A498 renal): 49.8 µM | TGI (SF-539 CNS): 59.4 µM | TGI (UACC-62 melanoma): > 100 µM | TGI (OVCAR-8 ovarian): 55.7 µM | TGI (MCF7 breast): > 100 µM | TGI (ACHN renal): > 100 µM | TGI (K-562 leukemia): > 100 µM | TGI (UACC-257 melanoma): > 100 µM | TGI (MDA-MB-435): > 100 µM | TGI (IGROV1 ovarian): > 100 µM | TGI (SW-620 colon): > 100 µM | TGI (SNB-19 CNS): 46.2 µM | TGI (BT-549 breast): > 100 µM | TGI (MDA-MB-231 breast): 62.6 µM | TGI (CCRF-CEM leukemia): > 100 µM | TGI (HOP-62 NSCLC): 41.7 µM | TGI (SK-OV-3 ovarian): 82.6 µM | TGI (OVCAR-4 ovarian): 39.8 µM | TGI (LOX IMVI melanoma): > 100 µM | TGI (EKVX NSCLC): > 100 µM | TGI (HS 578T breast): 70.3 µM | TGI (COLO 205 colon): > 100 µM | TGI (NCI-H226 lung): > 100 µM | TGI (KM12 colon): > 100 µM | TGI (SF-268 CNS): 70.7 µM | TGI (HOP-92 NSCLC): 65.4 µM | TGI (786-0 renal): 60.4 µM | TGI (SK-MEL-2 melanoma): > 100 µM | TGI (HT29 colon): > 100 µM | TGI (PC-3 prostate): > 100 µM | TGI (SK-MEL-28 melanoma): > 100 µM | TGI (UO-31 renal): > 100 µM | TGI (SNB-75 CNS): 84.3 µM | TGI (HCT-116 colon): > 100 µM | TGI (HCT-15 colon): > 100 µM | TGI (M14 melanoma): > 100 µM | TGI (HL-60(TB) leukemia): > 100 µM | TGI (MOLT-4 leukemia): > 100 µM | TGI (HCC-2998 colon): > 100 µM | TGI (SF-295 CNS): > 100 µM | TGI (SK-MEL-5 melanoma): > 100 µM | TGI (RPMI-8226 leukemia): > 100 µM | TGI (NCI/ADR-RES ovarian): > 100 µM | TGI (NCI-H23 lung): > 100 µM | TGI (SR leukemia): > 100 µM | TGI (RXF 393 renal): 56.6 µM
